Source: patent US7595398B2, “N-(5-membered aromatic ring)-amido anti-viral compounds” (SmithKline Beecham Corporation, priority 2005, dated 2009)

Each compound was assayed on HCV replicon I389luc-ubi-neo/NS3-3′/ET in ET (Huh-lucubineo-ET) cells; screening for HCV RNA dependent RNA polymerase (assay: Replicon Assay (luciferase, ET cell line Huh-lucubineo-ET)). Conditions: Hepatitis C virus; inhibition of replication relative to no compound control; test concentration of 10 μM according to the fitted equation; luciferase 48-72 hours.
Type: cell-based
Summary of the method: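 Huh-derived ET cells stably carrying an I389luc-ubi-neo/NS3-3′/ET HCV replicon with a luciferase-ubiquitin-neomycin phosphotransferase fusion and adaptive NS3-5B mutations were cultured in DMEM with 10% fetal calf serum and 250 μg/mL G418. Cells were seeded at 0.5-1.0×10^4 cells/well in 96 well plates and given compound after 24 hrs. Luciferase was read 48-72 hours later with Bright-Glo reagents, and replication inhibition was expressed relative to untreated controls.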

| SMILES | inhibition at 10 µM |
| --- | --- |
| O=C(Nc1nc(-c2ccc3c(c2)OCO3)cs1)[C@@H]1CCCN1C(=O)OCc1ccccc1 [Compound 5002, 2-(4-Benzo[1,3]dioxol-5-yl-thiazol-2-ylcarbamoyl)-pyrrolidine-1-carboxylic acid benzyl ester] | 94.7% |
| O=C(Nc1ncc(Cc2cccc([N+](=O)[O-])c2)s1)[C@@H]1CCCN1C(=O)OCc1ccccc1 [Compound 5047, 2-[5-(3-Nitrobenzyl)-thiazol-2-ylcarbamoyl]-pyrrolidine-1-carboxylic acid benzyl ester] | 37.7% |
| O=C(CCCCC1SC[C@@H]2NC(=O)N[C@H]12)NCCCCCC(=O)Nc1ccc(-c2csc(NC(=O)C3CCCN3C(=O)OCc3ccccc3)n2)cc1 (some centres unmarked) [Compound 5374, 2-[4-(4-{6-[5-(2-Oxo-hexahydro-thieno[3,4-d]imidazol-6-yl)-pentanoylamino]-hexanoylamino}-phenyl)-thiazol-2-ylcarbamoyl]-pyrrolidine-1-carboxylic acid benzyl ester] | 99.3% |
| O=C(Nc1nc(-c2ccc(Cl)cc2Cl)cs1)[C@@H]1CCCN1C(=O)OCc1ccccc1 [Compound 5101, 2-[4-(2,4-Dichloro-phenyl)-thiazol-2-ylcarbamoyl]-pyrrolidine-1-carboxylic acid benzyl ester] | 69.2% |
| O=C(NC1CC1)c1ccc(-c2csc(NC(=O)[C@H]3CCCN3C(=O)OCc3ccccc3)n2)cc1 [Compound 5349, 2-[4-(4-Cyclopropylcarbamoyl-phenyl)-thiazol-2-ylcarbamoyl]-pyrrolidine-1-carboxylic acid benzyl ester] | 28.6% |
| O=C(NC1CC1)c1ccc(-c2csc(NC(=O)[C@@H]3CCCN3C(=O)c3ccncc3)n2)cc1 [Compound 5321, 1-(Pyridine-4-carbonyl)-pyrrolidine-2-carboxylic acid [4-(4-cyclopropylcarbamoyl-phenyl)-thiazol-2-yl]-amide] | 91.3% |
| O=C(NC1CC1)c1ccc(-c2csc(NC(=O)[C@@H]3CSCN3C(=O)OCc3ccccc3)n2)cc1 [Compound 5327, 4-[4-(4-Cyclopropylcarbamoyl-phenyl)-thiazol-2-ylcarbamoyl]-thiazolidine-3-carboxylic acid benzyl ester] | 100% |
| O=C(NCc1ccc(-c2csc(NC(=O)[C@@H]3CCCN3C(=O)OCc3ccccc3)n2)cc1)C1CC1 [Compound 5369, 2-(4-{4-[(Cyclopropanecarbonyl-amino)-methyl]-phenyl}-thiazol-2-ylcarbamoyl)-pyrrolidine-1-carboxylic acid benzyl ester] | 98.3% |
| CC(=O)Nc1cccc(-c2csc(NC(=O)[C@@H]3CCCN3C(=O)OCc3ccccc3)n2)c1 [Compound 5015, 2-[4-(3-Acetylamino-phenyl)-thiazol-2-ylcarbamoyl]-pyrrolidine-1-carboxylic acid benzyl ester] | 99.4% |
| O=C(Nc1ncc(Cc2cccc(Cl)c2)s1)[C@@H]1CCCN1C(=O)OCc1ccccc1 [Compound 5029, 2-[5-(3-Chloro-benzyl)-thiazol-2-ylcarbamoyl]-pyrrolidine-1-carboxylic acid benzyl ester] | 0.52% |
| O=C(Nc1nc(-c2ccc(NS(=O)(=O)c3ccccc3)cc2)cs1)C1CCCN1C(=O)OCc1ccccc1 (centres unmarked) [Compound 5027, 2-[4-(4-Benzenesulfonylamino-phenyl)-thiazol-2-ylcarbamoyl]-pyrrolidine-1-carboxylic acid benzyl ester] | 99.7% |
| O=C(Nc1nc(-c2ccc(NCC3CCCC3)cc2)cs1)[C@@H]1CCCN1C(=O)OCc1ccccc1 [Compound 5380, 2-{4-[4-(Cyclopentylmethyl-amino)-phenyl]-thiazol-2-ylcarbamoyl}-pyrrolidine-1-carboxylic acid benzyl ester] | 98.3% |
| Nc1cccc(-c2cnc(NC(=O)[C@@H]3CCCN3C(=O)OCc3ccccc3)s2)c1 [Compound 5114, 2-[5-(3-Amino-phenyl)-thiazol-2-ylcarbamoyl]-pyrrolidine-1-carboxylic acid benzyl ester] | 25% |
| O=C(Nc1nc(-c2ccc(Br)cc2)cs1)[C@@H]1CCCN1C(=O)OCc1ccccc1 [Compound 5097, 2-[4-(4-Bromo-phenyl)-thiazol-2-ylcarbamoyl]-pyrrolidine-1-carboxylic acid benzyl ester] | 43.3% |
| O=C(Nc1ncc(Cc2cccc(Cl)c2Cl)s1)[C@@H]1CCCN1C(=O)OCc1ccccc1 [Compound 5012, 2-[5-(2,3-Dichloro-benzyl)-thiazol-2-ylcarbamoyl]-pyrrolidine-1-carboxylic acid benzyl ester] | 1.01% |
| O=C(Nc1cccc(-c2cnc(NC(=O)[C@@H]3CCCN3C(=O)OCc3ccccc3)s2)c1)C1CC1 [Compound 5108, 2-{5-[3-(Cyclopropanecarbonyl-amino)-phenyl]-thiazol-2-ylcarbamoyl}-pyrrolidine-1-carboxylic acid benzyl ester] | 98.9% |

| SMILES | inhibition at 10 µM |
| --- | --- |
| O=C(Nc1ccccc1)c1ccc(-c2csc(NC(=O)C3CCCN3C(=O)OCc3ccccc3)n2)cc1 (centres unmarked) [Compound 5109, 2-[4-(4-Phenylcarbamoyl-phenyl)-thiazol-2-ylcarbamoyl]-pyrrolidine-1-carboxylic acid benzyl ester] | 100% |
| O=C(Nc1nc(-c2ccc(F)cc2F)cs1)[C@@H]1CCCN1C(=O)OCc1ccccc1 [Compound 5023, 2-[4-(2,4-Difluoro-phenyl)-thiazol-2-ylcarbamoyl]-pyrrolidine-1-carboxylic acid benzyl ester] | 76.5% |
| O=C(NC1CC1)c1ccc(-c2cnc(NC(=O)[C@@H]3CCCN3C(=O)OCc3ccccc3)s2)cc1 [Compound 5352, 2-[5-(4-Cyclopropylcarbamoyl-phenyl)-thiazol-2-ylcarbamoyl]-pyrrolidine-1-carboxylic acid benzyl ester] | 7.07% |
| CC(=O)c1ccc(Cc2cnc(NC(=O)[C@@H]3CCCN3C(=O)OCc3ccccc3)s2)cc1 [Compound 5053, 2-[5-(4-Acetyl-benzyl)-thiazol-2-ylcarbamoyl]-pyrrolidine-1-carboxylic acid benzyl ester] | 4.55% |
| COC(=O)c1sc(NC(=O)[C@@H]2CCCN2C(=O)OCc2ccccc2)nc1-c1ccc(C(=O)NC2CC2)cc1 [Compound 5362, 2-[(1-Benzyloxycarbonyl-pyrrolidine-2-carbonyl)-amino]-4-(4-cyclopropylcarbamoyl-phenyl)-thiazole-5-carboxylic acid methyl ester] | 98.7% |
| O=C(Nc1cccc(-c2csc(NC(=O)[C@@H]3CCCN3C(=O)OCc3ccccc3)n2)c1)c1ccc(Cl)cc1 [Compound 5038, 2-{4-[3-(4-Chloro-benzoylamino)-phenyl]-thiazol-2-ylcarbamoyl}-pyrrolidine-1-carboxylic acid benzyl ester] | 100% |
| O=C(Nc1nc(-c2ccc(NS(=O)(=O)C3CC3)cc2)cs1)[C@@H]1CCCN1C(=O)OCc1ccccc1 [Compound 5329, 2-[4-(4-Cyclopropanesulfonylamino-phenyl)-thiazol-2-ylcarbamoyl]-pyrrolidine-1-carboxylic acid benzyl ester] | 97% |
| O=C(Nc1cccc(-c2csc(NC(=O)C3CCCN3C(=O)OCc3ccccc3)n2)c1)C1CC1 (centres unmarked) [Compound 5039, 2-{4-[3-(Cyclopropanecarbonyl-amino)-phenyl]-thiazol-2-ylcarbamoyl}-pyrrolidine-1-carboxylic acid benzyl ester] | 99.6% |
| NCc1ccc(-c2csc(NC(=O)[C@@H]3CCCN3C(=O)OCc3ccccc3)n2)cc1 [Compound 5379, 2-[4-(4-Aminomethyl-phenyl)-thiazol-2-ylcarbamoyl]-pyrrolidine-1-carboxylic acid benzyl ester] | 25% |
| O=C(Nc1nc(CSc2nc(-c3ccc(F)cc3)cs2)cs1)[C@@H]1CCCN1C(=O)OCc1ccccc1 [Compound 5061, 2-{4-[4-(4-Fluoro-phenyl)-thiazol-2-ylsulfanylmethyl]-thiazol-2-ylcarbamoyl}-pyrrolidine-1-carboxylic acid benzyl ester] | 88.4% |
| O=C(Nc1nc(-c2ccc(-n3nncc3-c3ccccc3)cc2)cs1)[C@@H]1CCCN1C(=O)OCc1ccccc1 [Compound 5104, 2-{4-[4-(5-Phenyl-[1,2,3]triazol-1-yl)-phenyl]-thiazol-2-ylcarbamoyl}-pyrrolidine-1-carboxylic acid benzyl ester] | 97.3% |
| O=C(Nc1nc(-c2ccco2)cs1)[C@@H]1CCCN1C(=O)OCc1ccccc1 [Compound 5347, 2-(4-Furan-2-yl-thiazol-2-ylcarbamoyl)-pyrrolidine-1-carboxylic acid benzyl ester] | 94.7% |
| O=C(NC1CC1)c1ccc(-c2csc(NC(=O)[C@@H]3CCCN3C(=O)c3ccccc3)n2)cc1 [Compound 5367, 1-Benzoyl-pyrrolidine-2-carboxylic acid [4-(4-cyclopropylcarbamoyl-phenyl)-thiazol-2-yl]-amide] | 97.3% |
| CC(C)(C)OC(=O)N1CCS[C@H]1C(=O)Nc1nc(-c2ccc(C(=O)NC3CC3)cc2)cs1 [Compound 5334, 2-[4-(4-Cyclopropylcarbamoyl-phenyl)-thiazol-2-ylcarbamoyl]-thiazolidine-3-carboxylic acid tert-butyl ester] | 99.9% |
| CC(C)(C)OC(=O)N1CCCC(NC(=O)c2ccc(-c3csc(NC(=O)[C@@H]4CCCN4C(=O)OCc4ccccc4)n3)cc2)C1 (stereo in doubt) [Compound 5365, 3-(4-{2-[(1-Benzyloxycarbonyl-pyrrolidine-2-carbonyl)-amino]-thiazol-4-yl}-benzoylamino)-piperidine-1-carboxylic acid tert-butyl ester] | 99.9% |
| O=C(Nc1nc2cc3ccccc3cc2s1)[C@@H]1CCCN1C(=O)OCc1ccccc1 [Compound 5035, 2-(Naphtho[2,3-d]thiazol-2-ylcarbamoyl)-pyrrolidine-1-carboxylic acid benzyl ester] | 100% |
